Square brackets hold non-standard residues; d marks the D form. Ends that are not written are not given here. Peptide text beside a SMILES is read from it.
What was measured:
A172 Cells = assay: PrestoBlue cell viability assay; format: cell-based; details: human, 10 μM
Procedure: The effect of the peptides on cell viability can be assessed in cultured cells using suitable assay of viability such as the PrestoBlue® assay (Thermo Fisher Scientific, Waltham, MA). Peptides were initially prepared as 10 mM stock in DMSO and tested at a final concentration of 10 μM (0.1% DMSO). […] PrestoBlue Assay Reagent was purchased from Thermo Fisher Scientific. A172 human brain glioblastoma cell line was purchased from American Type Culture Collection (Manassas, VA). A172 cells were grown in DMEM supplemented with 10% FBS with 100 IU/ml penicillin and 100 μg/ml streptomycin. Cultures were maintained at 37° C. in a humidified atmosphere of 5% CO2/95% air. A172 cells were seeded at 8,000 cells per well on 96-well plates. […] Cell viability was determined using a PrestoBlue Assay reagent […] according to the manufacturer's instructions. Absorption for each sample well on the plate was measured using a Cytation 3 plate reader at 560 nm and 590 nm (BioTek, Winooski, VT). Activity was calculated relative to 0.1% DMSO untreated control. Treatment with 0.1% DMSO alone was used as the cell viability activity control. The relative standard deviation of the DMSO control was <5%.

C2C12 Mouse Myoblasts = assay: Glucose utilization (glucose remaining in medium); format: cell-based; details: peptide 10 μM, 18-22 hours, relative to 0.1% DMSO treated control cells
Procedure: The effect of the peptides on glucose metabolism can be assessed using an assay of glucose utilization in cultured cells such as mouse myoblasts. Peptides were initially prepared as 10 mM stock in DMSO and used at a final concentration of 10 μM (0.1% DMSO). C2C12 mouse myoblast cell line was purchased from American Type Culture Collection (Manassas, VA). C2C12 cultures were maintained at 37° C. in a humidified atmosphere of 5% CO2/95% air with medium changes every second day. C2C12 cells were grown in DMEM (1 g/L glucose) supplemented with 10% FBS with 100 IU/ml penicillin and 100 μg/ml streptomycin. C2C12 cells were seeded at 7,000 cells per well on 96-well plates and cultured to confluence. Once the cell reached confluence the media was changed to DMEM (1 g/L glucose) supplemented with 2% HS with 100 IU/ml penicillin and 100 μg/ml streptomycin and maintained at 37° C. in a humidified atmosphere of 5% CO2/95% air. 5 days post-induction of differentiation fresh DMEM (1 g/L glucose) supplemented with 2% HS with 100 IU/ml penicillin and 100 μg/ml streptomycin was added to cultures. Cells were maintained at 37° C. in a humidified atmosphere of 5% CO2 and 95% air for 5 hours. After 5 hours test peptides at 10 μM or controls (0.5 mM or 1 mM metformin in 1% DMSO) prepared in fresh differentiation medium were added to cells and the cultures were maintained at 37° C. in a humidified atmosphere of 5% CO2/95% air for 18-22 hours. At the end of the incubation culture media was removed from the cells and the remaining glucose concentration was measured using a Glucose Assay kit (Abcam) according to the manufacturer's instructions, using a Cytation 3 plate reader at 570 nm (BioTek, Winooski, VT). Glucose concentrations in the medium were calculated relative to 0.1% DMSO treated control cells. The relative standard deviation of the result for the 0.1% DMSO treated control was <20%. Metformin was used as a positive control for reduction of glucose levels (increased glucose utilization glucose levels for treatment with metformin (1 mM) treatment were <20% of the 0.1% DMSO treated control value. The results are reported in Table 11.

Molecule | PrestoBlue cell viability, Percent of Control Activity (A172 Cells) [%] | Glucose Utilization (glucose concentration in medium), Percent of Untreated Control (C2C12 Mouse Myoblasts) [%]
MAGVIRGVLVL [compound 8] | 92.0 | 115.0
CC[C@H](C)[C@H](NC(=O)[C@H](CC(C)C)NC(=O)[C@H](C)NC(=O)[C@@H](N)CCSC)C(=O)N[C@@H](CC(=O)O)C(=O)N[C@H](C(=O)N[C@@H](CC(C)C)C(=O)N[C@H](C(=O)N[C@@H](CC(C)C)C(=O)N[C@H](C)C(=O)O)C(C)C)[C@@H](C)O [compound 5] (H-MALIDTLVL[dA]-OH; N-terminus and C-terminus assumed) | 97.0 | 128.8
CC[C@H](C)[C@H](NC(=O)[C@@H](NC(=O)[C@H](Cc1c[nH]cn1)NC(=O)[C@H](CCCNC(=N)N)NC(=O)[C@H](CC(=O)O)NC(=O)[C@H](Cc1ccc(O)cc1)NC(=O)[C@H](CC(C)C)NC(=O)[C@H](CC(C)C)NC(=O)[C@@H](NC(=O)[C@@H](N)Cc1c[nH]c2ccccc12)C(C)C)C(C)C)C(=O)NCC(=O)NCC(=O)N[C@@H](CO)C(=O)N[C@@H](CC(C)C)C(=O)N[C@@H](CS)C(=O)N[C@H](C(=O)N[C@H](C(=O)N[C@H](C(=O)N[C@@H](CCC(N)=O)C(=O)N[C@H](C(=O)N[C@@H](CCC(=O)O)C(=O)N[C@H](C)C(=O)N[C@@H](Cc1ccc(O)cc1)C(=O)O)C(C)C)C(C)C)C(C)C)C(C)C [compound 23] (H-WVLLYDRHVIGGSLCVVVQVE[dA]Y-OH; N-terminus and C-terminus assumed) | 97.1 | 109.6
RQWILHNGGMSFFC [compound 13] | 99.1 | 115.0
CC[C@H](C)[C@H](NC(=O)[C@@H](NC(=O)CNC(=O)[C@@H](C)NC(=O)[C@@H](N)CCSC)C(C)C)C(=O)N[C@@H](CCCNC(=N)N)C(=O)N[C@@H](C)C(=O)N[C@H](C(=O)N[C@@H](CC(C)C)C(=O)N[C@H](C(=O)N[C@@H](CC(C)C)C(=O)O)C(C)C)C(C)C [compound 10] (H-M[dA]GVIRAVLVL-OH; N-terminus and C-terminus assumed) | 99.6 | 109.1
CSCC[C@H](NC(=O)[C@H](CCCNC(=N)N)NC(=O)[C@H](CCCNC(=N)N)NC(=O)[C@@H](N)CCCNC(=N)N)C(=O)N[C@@H](Cc1ccccc1)C(=O)N[C@@H](CO)C(=O)N[C@@H](CS)C(=O)N[C@@H](Cc1ccc(O)cc1)C(=O)N[C@H](C)C(=O)N[C@@H](Cc1ccc(O)cc1)C(=O)O [compound 19] (H-RRRMFSCY[dA]Y-OH; N-terminus and C-terminus assumed) | 98.8 | 115.7
CC[C@H](C)[C@H](NC(=O)[C@H](CC(C)C)NC(=O)[C@H](CC(C)C)NC(=O)[C@@H](N)CCSC)C(=O)N[C@@H](CC(C)C)C(=O)N[C@H](C(=O)N[C@@H](CC(C)C)C(=O)N[C@H](C(=O)N[C@@H](CC(C)C)C(=O)N[C@H](C)C(=O)O)C(C)C)[C@@H](C)O [compound 3] (H-MLLILTLVL[dA]-OH; N-terminus and C-terminus assumed) | 96.5 | 105.2
CC[C@H](C)[C@H](NC(=O)[C@@H](NC(=O)CNC(=O)[C@@H](C)NC(=O)[C@@H](N)CCSC)C(C)C)C(=O)N[C@@H](CCCNC(=N)N)C(=O)NCC(=O)N[C@H](C(=O)N[C@@H](CC(C)C)C(=O)N[C@H](C(=O)N[C@@H](CC(C)C)C(=O)O)C(C)C)C(C)C [compound 9] (H-M[dA]GVIRGVLVL-OH; N-terminus and C-terminus assumed) | 94.8 | 128.4
CC[C@H](C)[C@H](NC(=O)[C@H](CC(C)C)NC(=O)[C@H](C)NC(=O)[C@@H](N)CCSC)C(=O)N[C@@H](CC(C)C)C(=O)N[C@H](C(=O)N[C@@H](CC(C)C)C(=O)N[C@H](C(=O)N[C@@H](CC(C)C)C(=O)N[C@H](C)C(=O)O)C(C)C)[C@@H](C)O [compound 4] (H-MALILTLVL[dA]-OH; N-terminus and C-terminus assumed) | 99.7 | 117.2
CC[C@H](C)[C@H](NC(=O)[C@@H](NC(=O)[C@H](Cc1c[nH]cn1)NC(=O)[C@H](CCCNC(=N)N)NC(=O)[C@H](CC(=O)O)NC(=O)[C@H](Cc1ccc(O)cc1)NC(=O)[C@H](CC(C)C)NC(=O)[C@H](CC(C)C)NC(=O)[C@@H](NC(=O)[C@@H](N)Cc1c[nH]c2ccccc12)C(C)C)C(C)C)C(=O)NCC(=O)NCC(=O)N[C@@H](CO)C(=O)N[C@@H](CC(C)C)C(=O)N[C@@H](CS)C(=O)N[C@H](C(=O)N[C@@H](CCC(N)=O)C(=O)N[C@H](C(=O)N[C@@H](CCC(N)=O)C(=O)N[C@H](C(=O)N[C@@H](CCC(=O)O)C(=O)N[C@H](C)C(=O)O)C(C)C)C(C)C)C(C)C [compound 25] (H-WVLLYDRHVIGGSLCVQVQVE[dA]-OH; N-terminus and C-terminus assumed) | 96.5 | 107.2
MLLILTLVLL [compound 2] | 94.4 | 113.5
RRRMFSCYLY [compound 18] | 100.9 | 124.0
MMAGVIRGVLVL [compound 7] | 86.2 | 128.3
MRQWILHNGGMSFFC [compound 12] | 100.5 | 113.6
CC[C@H](C)[C@H](NC(=O)[C@H](Cc1c[nH]c2ccccc12)NC(=O)[C@H](CCC(N)=O)NC(=O)[C@@H](N)CCCNC(=N)N)C(=O)N[C@@H](CC(C)C)C(=O)N[C@@H](Cc1c[nH]cn1)C(=O)N[C@@H](CC(N)=O)C(=O)N[C@H](C)C(=O)NCC(=O)N[C@@H](CCSC)C(=O)N[C@@H](CO)C(=O)N[C@@H](Cc1ccccc1)C(=O)N[C@@H](Cc1ccccc1)C(=O)N[C@@H](CS)C(=O)O [compound 14] (H-RQWILHN[dA]GMSFFC-OH; N-terminus and C-terminus assumed) | 97.5 | 115.7
MRRRMFSCYLY [compound 17] | 100.6 | 121.7
GWVLLYDRHVIGGSLCVVVQVEAY [compound 22] | 96.5 | 70.4
CSCC[C@H](NC(=O)CNC(=O)[C@@H](C)NC(=O)[C@H](CC(N)=O)NC(=O)[C@H](Cc1c[nH]cn1)NC(=O)[C@H](CC(C)C)NC(=O)[C@H](CCC(=O)O)NC(=O)[C@H](Cc1c[nH]c2ccccc12)NC(=O)[C@H](CCC(N)=O)NC(=O)[C@@H](N)CCCNC(=N)N)C(=O)N[C@@H](CO)C(=O)N[C@@H](C)C(=O)N[C@@H](Cc1ccccc1)C(=O)N[C@@H](CS)C(=O)O [compound 15] (H-RQWELHN[dA]GMSAFC-OH; N-terminus and C-terminus assumed) | 98.8 | 115.1

Source: US20240034753A1, “THERAPEUTIC PEPTIDES” (COHBAR, INC., priority 2020, published 2024)
